Values quoted from earlier work as cited in patent US20040018228A1, “Compositions and methods for reducing scar tissue formation” (Afmedica, Inc., priority 2000, published 2004).

Assays:
keloids = conditions: in vivo

SMILES | treatment of keloids (keloids) | solubility in aqueous solutions
C=CC[C@@H]1/C=C(\C)C[C@H](C)C[C@H](OC)[C@H]2O[C@@](O)(C(=O)C(=O)N3CCCC[C@H]3C(=O)O[C@H](/C(C)=C/[C@@H]3CC[C@@H](O)[C@H](OC)C3)[C@H](C)[C@@H](O)CC1=O)[C@H](C)C[C@@H]2OC [tacrolimus] | effectively treat keloids | 
CO[C@H]1C[C@@H]2CC[C@@H](C)[C@@](O)(O2)C(=O)C(=O)N2CCCC[C@H]2C(=O)O[C@H]([C@H](C)C[C@@H]2CC[C@@H](O)[C@H](OC)C2)CC(=O)[C@H](C)/C=C(\C)[C@@H](O)[C@@H](OC)C(=O)[C@H](C)C[C@H](C)/C=C/C=C/C=C/1C [sirolimus] |  | not to be readily soluble in aqueous solutions
